Molecular target: T1, KRAS G12C 1-169, his-tagged protein, GDP-loaded (Homo sapiens, UniProt P01116, G12C)
T1 construct: KRAS G12C 1-169, his-tagged protein, GDP-loaded
Assay: Biochemical assay: covalent binding of compounds to KRAS G12C, analysed by mass spectrometry
Conditions: binding measured at 30 min (compounds 247-375)
Description: Compounds were tested for activity as follows:
Compounds were diluted to 50× final test concentration in DMSO in 96-well storage plates. […] Reactions were mixed carefully and thoroughly by pipetting up/down with a 200 μl multi-channel pipettor. The plate was sealed well with aluminum plate seal, and stored in drawer at room temperature for 30 min, 2 hour or 24 hrs. 51 μl of 2% formic acid (Fisher cat # A117) in DI H2O was then added to each well followed by mixing with a pipette. The plate was then resealed with aluminum seal and stored on dry ice until analyzed as described below.
The above described assays were analyzed by mass spectrometry according to the following procedure:
The MS instrument is set to positive polarity, 2 GHz resolution, and low mass (1700) mode and allowed to equilibrate for 30 minutes. The instrument is then calibrated, switched to acquisition mode and the appropriate method loaded.
After another 30 minute equilibration time, a blank batch (i.e., buffer) is run to ensure equipment is operating properly. The samples are thawed at 37° C. for 10 minutes, briefly centrifuged, and transfer to the bench top. Wells A1 and H12 are spiked with 1 uL 500 uM internal standard peptide, and the plates centrifuged at 2000×g for 5 minutes. The method is then run and masses of each individual well recorded.
The masses (for which integration data is desired) for each well are pasted into the platemap and exported from the analysis. Masses for the internal standards are exported as well. The data at 50 ppm is extracted for the +19 charge state, and identity of well A1 is assigned using the internal standard spike and integrated. Peak data is exported as a TOF list and the above steps are repeated individually, for the +20, 21, 22, 23, 24, and 25 charge states.

T1 sequence (P01116 1-169 isoform P01116-2 G12C): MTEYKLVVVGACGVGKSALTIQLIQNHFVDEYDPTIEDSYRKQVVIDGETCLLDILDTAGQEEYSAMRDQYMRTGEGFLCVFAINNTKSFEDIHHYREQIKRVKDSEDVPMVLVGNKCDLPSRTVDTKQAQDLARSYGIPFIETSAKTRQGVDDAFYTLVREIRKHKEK

Compound | Binding %
C=CC(=O)N1CCN(c2nc(OCCN(C)C)nc3c(F)c(-c4cc(O)cc5ccccc45)c(Cl)cc23)CC1 [Compound 374, 1-(4-(6-chloro-2-(2-(dimethylamino)ethoxy)-8-fluoro-7-(3-hydroxynaphthalen-1-yl)quinazolin-4-yl)piperazin-1-yl)prop-2-en-1-one] | +++ (+++ indicates binding activity greater than 50% and up to 75%)
C=CC(=O)N1CCN(c2nc(Oc3cnn(C)c3)nc3c(F)c(-c4c(C)ccc5[nH]ncc45)c(Cl)cc23)CC1 [Compound 375, 1-(4-(6-chloro-8-fluoro-7-(5-methyl-1H-indazol-4-yl)-2-(1-methyl-1H-pyrazol-4-yloxy)quinazolin-4-yl)piperazin-1-yl)prop-2-en-1-one] | +++ (+++ indicates binding activity greater than 50% and up to 75%)
